Experimental findings from PubChem BioAssay (NCI) are described below.

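Step 1: Grow cells in 96-well plates. Step 2: Expose to compound for 48 hours at 5 concentrations. Step 3: Interpolate endpoints linearly; if unreached, use highest concentration. GI50 marks 50% less growth. TGI marks complete inhibition of growth.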

Among the test systems are BT-549 breast; HS 578T breast; PC-3 prostate; MDA-MB-435; MDA-N.
Assay in all cases: inhibition of tumour cell growth, NCI panel, 48 h

Take `O=C1Nc2ccccc2/C1=C\c1nc(C2CCN(S(=O)(=O)c3ccc(F)cc3)CC2)n2ccccc12`: the values for the GI50 in the test with BT-549 breast, in the test with HS 578T breast and in the test with PC-3 prostate were 1.85 µM, 1.22 µM and 4.98 µM, respectively. Moreover, the results for the TGI with BT-549 breast, in the test on HS 578T breast and in the test on PC-3 prostate were 8.48 µM, 5.78 µM and > 100 µM, respectively.

In the case of `CN1CCN(c2nc(NCCCNc3ccnc4cc(Cl)ccc34)c3ccccc3n2)CC1`, the GI50 is 4.4 µM with BT-549 breast, 3.35 µM in the test on HS 578T breast, 2.09 µM in the test with MDA-MB-435 and 6.14 µM in the test on PC-3 prostate. Besides, the TGI was determined as 16.7 µM with BT-549 breast, 19 µM in the test on HS 578T breast, 4.33 µM in the test with MDA-MB-435 and 20.7 µM with PC-3 prostate.

With `Oc1ccc(CCNCc2cc3c(cc2Br)OCO3)cc1`, the TGI in the test on BT-549 breast, in the test on HS 578T breast, in the test on MDA-N and in the test on PC-3 prostate was > 100 µM in each case.

On to `Cc1cc(N2CCCC2)nc(NCc2cc(Nc3ccnc4cc(Cl)ccc34)ccc2F)n1`, for which the GI50 with BT-549 breast is 1.54 µM; in the test on HS 578T breast, 1.51 µM; in the test with MDA-MB-435, 1.51 µM; with PC-3 prostate it was 1.19 µM. Besides, the TGI with BT-549 breast was 3.3 µM; in the test with HS 578T breast, 3.91 µM; in the test with MDA-MB-435 it was 2.99 µM; in the test on PC-3 prostate it was 2.58 µM.

Turning to `CCCCN(CCCC)CCC(O)c1cc2c(Cl)cc(Cl)cc2c2cc(C(F)(F)F)ccc12` (stereo not drawn), the results for the TGI in the test with MDA-MB-435, in the test on MDA-N and in the test with PC-3 prostate were 28.7 µM, 26 µM and 22.2 µM, respectively.

Take `Cc1[nH]c(-c2nc3ccccc3[nH]2)c(C)c1C(=O)NC(C)C1CCCCC1` (stereo not drawn): the GI50 was 10.7 µM in the test with BT-549 breast, 8.88 µM in the test with HS 578T breast, 2.29 µM in the test on MDA-MB-435 and 12 µM in the test with PC-3 prostate. Moreover, the TGI in the test with BT-549 breast stood at 23.2 µM; in the test with HS 578T breast, 30.9 µM; in the test on MDA-MB-435, 5.85 µM; in the test with PC-3 prostate, 28.4 µM.

With `CCCCNC(=O)c1cc(NCc2cc(O)ccc2O)ccc1O`, the GI50 is 3.24 µM in the test on BT-549 breast, 24.8 µM with HS 578T breast, 17.7 µM with MDA-MB-435 and 10.3 µM in the test with PC-3 prostate. Besides, the TGI in the test on BT-549 breast is 13.5 µM; in the test with HS 578T breast it was > 100 µM; in the test on MDA-MB-435, 39.5 µM; in the test on PC-3 prostate, 27.4 µM.

Regarding `CCCCc1n(Cc2ccc3ccccc3c2)cc[n+]1Cc1ccc2ccccc2c1`, in the test with MDA-MB-435, the GI50 is 1.02 µM and the TGI was determined as 2.26 µM. In the test with PC-3 prostate, the GI50 is 1.11 µM and the TGI came to 2.53 µM.

With `O=[n+]1c2ccccc2n([O-])c2cc(Cl)ccc21`, the GI50 with BT-549 breast was 5.2 µM; in the test with HS 578T breast it was 2.95 µM; in the test on MDA-MB-435 it was 11.3 µM. The TGI with BT-549 breast was 24.1 µM; in the test with HS 578T breast, 21.7 µM; with MDA-MB-435, 23.7 µM.

In the case of `COc1cc(N2CCN(C(C)C)CC2)ccc1Nc1nc(Nc2cccc(F)c2C(=O)O)c2cc[nH]c2n1`, the GI50 with BT-549 breast, in the test with HS 578T breast, in the test with MDA-MB-435 and with PC-3 prostate was > 25 µM in each case. Further, the TGI with BT-549 breast, in the test on HS 578T breast, in the test with MDA-MB-435 and in the test with PC-3 prostate was > 25 µM throughout.

As to `CCN(CC)CCN(Cc1ccc(F)cc1)c1ccc(CO)c(Cl)c1`, the GI50 was > 89.6 µM in the test with BT-549 breast, 48.3 µM in the test with HS 578T breast, 23.5 µM in the test with MDA-MB-435 and 13.2 µM in the test with PC-3 prostate. Also, the TGI in the test with BT-549 breast is > 100 µM; with HS 578T breast it was > 100 µM; with MDA-MB-435, 74.7 µM; in the test on PC-3 prostate it was > 92.3 µM.

`COc1ccc(/C=C2\CN(Cc3cn(CCNc4ccnc5cc(Cl)ccc45)nn3)C/C(=C\c3ccc(OC)c(OC)c3)C2=O)cc1OC`: the GI50 in the test with BT-549 breast was 2.16 µM; with HS 578T breast, 6.49 µM; with MDA-MB-435, 3.01 µM; in the test on PC-3 prostate, 3.57 µM. Also, the TGI in the test with BT-549 breast was 4.84 µM; with HS 578T breast, > 100 µM; with MDA-MB-435 it was 19.1 µM; in the test on PC-3 prostate it was > 100 µM.

Regarding `Cc1[nH]nc2c1N=C(c1ccccc1F)c1cc(C(N)=O)ccc1N2`, the GI50 in the test with BT-549 breast is 2.9 µM; in the test on HS 578T breast, 0.511 µM; in the test on MDA-MB-435 it was 7.35 µM; in the test with PC-3 prostate, 2.26 µM. For the same compound, the TGI in the test with BT-549 breast is 12.8 µM; with HS 578T breast it was 7.25 µM; in the test with MDA-MB-435, > 25 µM; with PC-3 prostate it was > 25 µM.

For `C[C@]1(Cn2ccnn2)C(C(=O)O)N2C(=O)CC2S1(=O)=O` (stereo partly drawn), the GI50 with BT-549 breast, in the test with HS 578T breast, with MDA-MB-435 and with PC-3 prostate was > 100 µM in each case. Further, the TGI in the test with BT-549 breast, with HS 578T breast, with MDA-MB-435 and in the test on PC-3 prostate was > 100 µM throughout.

Turning to `Cc1cc2nc3cc(C)c(N)cc3[n+](-c3ccccc3)c2cc1N`, the GI50 in the test with BT-549 breast was 2.64 µM; in the test with HS 578T breast it was 10.6 µM; in the test on MDA-MB-435 it was 4.68 µM; with PC-3 prostate, 3.63 µM. The TGI was 18.8 µM in the test on BT-549 breast, > 100 µM in the test with HS 578T breast, 67 µM with MDA-MB-435 and > 100 µM with PC-3 prostate.

Regarding `O=c1c(Br)cc2c(-c3ccccc3)c3cc(Br)c(O)c(Br)c3oc-2c1Br`, the TGI in the test with HS 578T breast, in the test with MDA-MB-435, with MDA-N and with PC-3 prostate was > 100 µM in each case.

For the compound `CN1CCN(Cc2ccc(NC(=O)c3cncc(C#Cc4cncc5nccnc45)c3)cc2C(F)(F)F)CC1`, the GI50 is 5.27 µM with BT-549 breast, 1.13 µM with HS 578T breast, 1.34 µM in the test on MDA-MB-435 and 4.73 µM with PC-3 prostate. For the same compound, the TGI is 11.2 µM in the test on BT-549 breast, 7.89 µM in the test with HS 578T breast, 7.3 µM in the test with MDA-MB-435 and 32.2 µM in the test with PC-3 prostate.

Take `CCc1cc2ncc(CN3CCN(c4ccc(C(=O)NC)nc4)CC3)cc2[nH]c1=O`: the GI50 in the test on BT-549 breast is 25.9 µM; in the test with HS 578T breast it was 64 µM; in the test on MDA-MB-435, 85.8 µM; with PC-3 prostate, 51.7 µM. Also, the TGI in the test with BT-549 breast, in the test with HS 578T breast, with MDA-MB-435 and with PC-3 prostate was > 100 µM throughout.
